Data set [1] deals with Dual specificity mitogen-activated protein kinase kinase 1 (Homo sapiens) (UniProt Q02750). Put plainly: Inhibition of full length recombinant human MEK1 assessed as residual activity at 10 uM using inactive MAPK2 as substrate incubated for 40 mins in presence of [gamma-33P]ATP at Km concentration by radiometric assay relative to control.
The target of data set [2] is Ribosomal protein S6 kinase alpha-1 (Homo sapiens) (UniProt Q15418). Put plainly: Inhibition of recombinant full length human RSK1 assessed as residual activity at 10 uM using KKKNRTLSVA as substrate incubated for 40 mins in presence of [gamma-33P]ATP at Km concentration by radiometric assay relative to control.
Sequence of Ribosomal protein S6 kinase alpha-1 (Homo sapiens) (Q15418 whole entry): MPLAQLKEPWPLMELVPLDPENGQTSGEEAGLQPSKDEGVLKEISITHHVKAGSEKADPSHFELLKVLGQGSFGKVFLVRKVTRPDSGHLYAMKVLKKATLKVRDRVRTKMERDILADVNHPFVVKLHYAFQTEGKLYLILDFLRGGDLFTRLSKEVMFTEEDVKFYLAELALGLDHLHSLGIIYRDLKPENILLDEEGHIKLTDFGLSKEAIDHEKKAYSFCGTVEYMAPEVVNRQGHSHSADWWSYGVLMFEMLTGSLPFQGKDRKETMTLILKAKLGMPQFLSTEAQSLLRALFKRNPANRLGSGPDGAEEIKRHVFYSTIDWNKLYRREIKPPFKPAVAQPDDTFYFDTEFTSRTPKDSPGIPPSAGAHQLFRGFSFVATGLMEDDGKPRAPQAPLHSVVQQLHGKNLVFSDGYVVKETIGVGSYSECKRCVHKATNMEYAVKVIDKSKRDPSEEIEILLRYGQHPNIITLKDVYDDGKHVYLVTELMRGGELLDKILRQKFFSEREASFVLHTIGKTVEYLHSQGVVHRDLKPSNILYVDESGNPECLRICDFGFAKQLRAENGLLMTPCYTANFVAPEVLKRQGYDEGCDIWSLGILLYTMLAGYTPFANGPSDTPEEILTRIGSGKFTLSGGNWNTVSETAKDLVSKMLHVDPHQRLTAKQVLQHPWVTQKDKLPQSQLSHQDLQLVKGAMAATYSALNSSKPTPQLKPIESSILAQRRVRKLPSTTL
The target in data set [3] is Insulin-like growth factor 1 receptor (Homo sapiens) (UniProt P08069). Put plainly: Inhibition of human recombinant IGF1R (959 to end residues) assessed as residual activity at 10 uM using KKKSPGEYVNIEF as substrate incubated for 40 mins in presence of [gamma-33P]ATP at Km concentration by radiometric assay relative to control.
Sequence of Insulin-like growth factor 1 receptor (Homo sapiens) (P08069 31-736 limits assumed): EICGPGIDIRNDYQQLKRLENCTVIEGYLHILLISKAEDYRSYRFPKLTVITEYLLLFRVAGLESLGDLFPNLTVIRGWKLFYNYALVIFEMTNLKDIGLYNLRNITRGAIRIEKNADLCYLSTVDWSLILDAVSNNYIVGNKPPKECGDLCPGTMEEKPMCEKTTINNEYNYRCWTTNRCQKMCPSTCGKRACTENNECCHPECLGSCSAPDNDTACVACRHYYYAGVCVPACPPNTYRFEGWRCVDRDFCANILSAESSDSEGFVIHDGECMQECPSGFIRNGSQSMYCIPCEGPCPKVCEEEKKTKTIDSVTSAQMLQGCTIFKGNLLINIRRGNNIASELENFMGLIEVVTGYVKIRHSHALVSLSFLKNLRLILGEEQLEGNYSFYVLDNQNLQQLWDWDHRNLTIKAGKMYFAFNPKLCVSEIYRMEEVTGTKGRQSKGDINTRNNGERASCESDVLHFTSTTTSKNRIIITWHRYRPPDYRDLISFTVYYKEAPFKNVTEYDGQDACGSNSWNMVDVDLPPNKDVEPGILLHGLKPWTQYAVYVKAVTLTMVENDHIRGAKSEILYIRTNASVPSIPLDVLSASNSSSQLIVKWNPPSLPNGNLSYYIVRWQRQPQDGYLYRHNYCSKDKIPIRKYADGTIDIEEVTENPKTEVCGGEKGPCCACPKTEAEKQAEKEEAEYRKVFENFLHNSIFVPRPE
Sequence of Insulin-like growth factor 1 receptor (Homo sapiens) (P08069 741-1367 limits assumed): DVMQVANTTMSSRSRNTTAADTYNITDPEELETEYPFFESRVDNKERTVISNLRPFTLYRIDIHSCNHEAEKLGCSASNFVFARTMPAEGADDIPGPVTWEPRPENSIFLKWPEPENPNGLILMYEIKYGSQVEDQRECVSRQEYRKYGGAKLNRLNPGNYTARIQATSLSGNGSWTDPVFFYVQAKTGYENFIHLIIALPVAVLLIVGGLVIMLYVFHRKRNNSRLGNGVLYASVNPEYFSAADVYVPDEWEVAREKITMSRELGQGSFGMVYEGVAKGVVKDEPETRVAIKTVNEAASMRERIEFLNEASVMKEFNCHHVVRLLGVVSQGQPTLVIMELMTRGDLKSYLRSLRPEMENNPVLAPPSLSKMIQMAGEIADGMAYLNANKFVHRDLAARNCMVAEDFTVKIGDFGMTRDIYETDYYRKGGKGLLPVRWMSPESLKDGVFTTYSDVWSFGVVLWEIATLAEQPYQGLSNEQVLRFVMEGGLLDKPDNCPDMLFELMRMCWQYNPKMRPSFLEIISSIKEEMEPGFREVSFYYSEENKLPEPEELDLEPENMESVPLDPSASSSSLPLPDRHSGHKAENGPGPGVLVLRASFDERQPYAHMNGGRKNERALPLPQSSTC
Data set [4] concerns the target Mitogen-activated protein kinase kinase kinase 7 (Homo sapiens) (UniProt O43318). Put plainly: Inhibition of recombinant human TAK1 (1 to 303 residues) assessed as residual activity at 10 uM using casein as substrate incubated for 40 mins in presence of [gamma-33P]ATP at Km concentration by radiometric assay relative to control.
In data set [5] the target is ALK tyrosine kinase receptor (Homo sapiens) (UniProt Q9UM73). As to the kind of experiment: Inhibition of human recombinant ALK (1058 to end residues) assessed as residual activity at 10 uM using KKKSPGEYVNIEF as substrate incubated for 40 mins in presence of [gamma-33P]ATP at Km concentration by radiometric assay relative to control.
Sequence of ALK tyrosine kinase receptor (Homo sapiens) (Q9UM73 19-1620 limits assumed): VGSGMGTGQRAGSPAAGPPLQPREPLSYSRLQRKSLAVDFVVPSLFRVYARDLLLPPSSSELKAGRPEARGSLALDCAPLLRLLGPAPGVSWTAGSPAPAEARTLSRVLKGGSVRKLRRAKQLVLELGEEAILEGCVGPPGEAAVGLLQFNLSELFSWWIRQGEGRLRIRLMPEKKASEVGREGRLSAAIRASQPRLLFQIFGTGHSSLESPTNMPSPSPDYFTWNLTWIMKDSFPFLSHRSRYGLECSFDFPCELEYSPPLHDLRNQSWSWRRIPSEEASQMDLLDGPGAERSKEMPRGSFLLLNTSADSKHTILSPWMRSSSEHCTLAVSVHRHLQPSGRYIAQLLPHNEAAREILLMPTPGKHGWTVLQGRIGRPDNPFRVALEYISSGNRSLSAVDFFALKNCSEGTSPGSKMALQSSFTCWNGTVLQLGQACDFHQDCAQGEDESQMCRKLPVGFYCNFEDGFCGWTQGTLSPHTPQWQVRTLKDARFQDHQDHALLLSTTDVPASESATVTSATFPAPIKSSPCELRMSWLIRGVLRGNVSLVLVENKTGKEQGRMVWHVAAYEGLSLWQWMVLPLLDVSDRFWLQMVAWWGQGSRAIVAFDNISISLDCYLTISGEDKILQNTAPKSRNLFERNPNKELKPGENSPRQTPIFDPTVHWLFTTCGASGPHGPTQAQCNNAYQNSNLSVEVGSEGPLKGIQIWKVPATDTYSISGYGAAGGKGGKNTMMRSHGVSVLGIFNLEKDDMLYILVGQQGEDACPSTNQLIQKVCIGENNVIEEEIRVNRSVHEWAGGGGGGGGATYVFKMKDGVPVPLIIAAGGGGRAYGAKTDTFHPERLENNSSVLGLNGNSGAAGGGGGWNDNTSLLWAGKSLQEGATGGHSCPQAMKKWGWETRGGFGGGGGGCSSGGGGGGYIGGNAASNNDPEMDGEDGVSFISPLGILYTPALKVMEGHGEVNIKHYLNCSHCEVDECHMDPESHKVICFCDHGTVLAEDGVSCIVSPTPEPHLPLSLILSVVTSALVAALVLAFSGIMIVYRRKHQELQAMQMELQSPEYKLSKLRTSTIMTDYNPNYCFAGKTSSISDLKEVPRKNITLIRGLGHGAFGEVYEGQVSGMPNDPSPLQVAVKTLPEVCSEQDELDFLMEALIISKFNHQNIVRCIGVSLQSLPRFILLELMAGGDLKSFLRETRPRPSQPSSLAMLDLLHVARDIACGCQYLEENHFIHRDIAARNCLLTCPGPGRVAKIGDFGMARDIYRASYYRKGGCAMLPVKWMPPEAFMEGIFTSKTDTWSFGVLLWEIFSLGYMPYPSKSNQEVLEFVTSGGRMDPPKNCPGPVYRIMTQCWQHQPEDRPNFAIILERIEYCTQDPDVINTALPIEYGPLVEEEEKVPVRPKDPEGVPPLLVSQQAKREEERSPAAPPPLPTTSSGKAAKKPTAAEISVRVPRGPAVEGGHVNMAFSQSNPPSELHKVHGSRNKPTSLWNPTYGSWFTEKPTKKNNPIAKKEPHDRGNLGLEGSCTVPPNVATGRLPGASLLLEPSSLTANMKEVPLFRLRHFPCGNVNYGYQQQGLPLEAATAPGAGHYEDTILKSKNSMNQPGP
Data set [6] deals with Protein kinase C alpha type (Homo sapiens) (UniProt P17252). As to the kind of experiment: Inhibition of recombinant full length human PKCalpha assessed as residual activity at 10 uM using histone H1 as substrate incubated for 40 mins in presence of [gamma-33P]ATP at Km concentration by radiometric assay relative to control.
Data set [7] can be described thus: Solubility of compound in pH 7.4 PBS at 100 ug/ml incubated for 2 hrs by LC-MS/MS analysis. The note with it: buffer, pH 7.4, 2 h. The class given is physicochemical.

In ChEMBL document CHEMBL4396947, “Synthesis and characterization of novel isoform-selective IP6K1 inhibitors” (Bioorg Med Chem Lett, 2019) one finds Activity and solubility data, which are given here for one molecule.

In brackets after ≈: the same amount, converted by molar mass.

Sequence of Dual specificity mitogen-activated protein kinase kinase 1 (Homo sapiens) (Q02750 whole entry): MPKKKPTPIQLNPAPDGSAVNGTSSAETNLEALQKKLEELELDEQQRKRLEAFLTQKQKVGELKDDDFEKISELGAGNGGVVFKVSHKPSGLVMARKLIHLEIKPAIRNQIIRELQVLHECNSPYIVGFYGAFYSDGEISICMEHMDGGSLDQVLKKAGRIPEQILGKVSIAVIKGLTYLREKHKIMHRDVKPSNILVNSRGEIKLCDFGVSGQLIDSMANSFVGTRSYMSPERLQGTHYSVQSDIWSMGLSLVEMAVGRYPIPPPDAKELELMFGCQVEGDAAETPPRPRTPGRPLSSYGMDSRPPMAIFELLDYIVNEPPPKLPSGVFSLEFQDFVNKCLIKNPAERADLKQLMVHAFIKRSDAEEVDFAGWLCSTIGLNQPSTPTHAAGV

As a reminder, the solubility is the concentration that dissolves in the medium under given conditions. For `COc1ccc2c(CCNc3nc(NCc4ccc(=O)[nH]c4)c4nc[nH]c4n3)c[nH]c2c1`, the Activity in data set [1] is 11%; in data set [2], 45%; in data set [3], 86%; in data set [4] it was 66%; in data set [5], 88%; in data set [6] it was 86%. This molecule also displayed a solubility in data set [7] of 51 µg/mL (≈ 118 µM).
